Test results from US20240271100A1, “IN VITRO DIFFERENTIATION OF PANCREATIC ENDOCRINE CELLS” (VERTEX PHARMACEUTICALS INCORPORATED, priority 2020, published 2024).

Assays:
EZH2 = EZH2 (Homo sapiens, UniProt Q15910); conditions: cited from earlier work
[1] = system: PDX1-positive, NKX6.1-positive pancreatic progenitor cells; assay: FGF2 applied at S5 day 1 and day 2 of the Version A differentiation protocol; flow cytometry on S6d1; type: cell-based, human; conditions: FGF2 100 ng/mL at S5 day 1 and day 2; FIGS. 8A-8B
Procedure: (§1) For initial steps, basically, human pluripotent stem cell line SEM01 was thawed from a 3D suspension bank and seeded at a density of 1M cells/ml into 500 ml spinner flasks (Corning; 89,089-814) with 300 ml Nutristem media (Biological Industries 05-100-1A) supplemented with […] Y27632 (ab120129) and 100 ng/ml FGF2 (Peprotech RUO: 100-18B-1MG). Spinner flasks were placed on a magnetic stir plate (Chemglass) rotating at 60 r.p.m. in a humidified 37 C incubator set at 5% CO2. Cells were passaged every 72 hours. After 3 passages, cells were seeded at 0.5M cells/ml density and fed every 24 hours until 72 hours. Then, differentiation was initiated in spinner flasks using the Version A differentiation protocol which begins on day 1 of Stage 1 (S1, day 1). FGF2 was added to Stage 3, Stage 4, or Stage 5 as detailed below in the modified protocol.
(§2) Version A protocol is a 6-stage stepwise protocol. With Version A protocol, stem cells were treated with reagents in the following consecutive orders during the six stages: Stage 1 (S1), Activin-A for 3 days and also CHIR99021 for the first 24 hr; Stage 2 (S2), KGF for 3 days; Stage 3 (S3), KGF, PDBU, Sant-1, retinoic acid (RA), Activin A, and Thiazovivin for 2 days, and also DMH-1 for the first day; Stage 4 (S4), KGF, Sant-1, Thiazovivin, Activin A, and RA for 6 days; Stage 5 (S5), XXI, Alk5i, GC-1, LDN-193189, Thiazovivin, Staurosporine, and DZNEP for 7 days, and also RA, Sant-1, and Betacellulin for the first 2 days.
Upon completion of Stage 5, on Stage 6 day 1 (S6dl), the cells were collected, dispersed, and analyzed by flow cytometry. […] Stained cells were measured using an Accuri 6 flow cytometer (BD Biosciences) and analyzed using Accuri software.
In one experiment, Version A protocol, as described in Example 1, was compared with a modified protocol in which 100 ng/mL FGF2 was added on protocol day 15 and day 16 (Stage 5 day 1 and day 2). As described above, on S6dl, the cells were collected, dispersed, and analyzed by flow cytometry.

[2] = system: PDX1-positive pancreatic progenitor cells; assay: FGF2 applied during S4 of the Version A differentiation protocol; flow cytometry of the resulting endocrine cell population; type: cell-based, human
Procedure: as §1, §2
(§3) Upon completion of Stage 5, on Stage 6 day 1 (S6dl), the cells were collected, dispersed, and analyzed by flow cytometry. Briefly, islets were dispersed with TrypLE Express (Life Technologies; 12,604,013) at 37 C, fixed with 4% PFA for 20 mins at 4 C, blocked by 1 hour in FACS buffer (5% Donkey Serum and 0.1% Saponin in PBS) at room temperature, stained with NKX6.1 (DSHB FSSA12 1:100) and ISL1 (ab178400 1:500) antibodies diluted in FACS buffer overnight at 4 C. The next day, cells were washed twice with FACS buffer, stained with secondary antibody: anti-Rabbit AlexaFluor-488 (A31573 1:1000) and anti-Mouse Alexa Fluro-647 (A31571 1:1000) diluted in FACS buffer, and washed twice with FACS buffer. Stained cells were measured using an Accuri 6 flow cytometer (BD Biosciences) and analyzed using Accuri software.
In one experiment, Version A protocol, as described in Example 1, was compared with a modified protocol in which 100 ng/mL FGF2 was added on day 1, 3, and 5 of S4 to the culture medium. As described above, on S6dl, the cells were collected, dispersed, and analyzed by flow cytometry.

primitive gut tube cells = assay: FGF2 applied during S3 of the Version A differentiation protocol; flow cytometry of the resulting endocrine cell population; type: cell-based, human
Procedure: An exemplary differentiation protocol, Version A, according to the present disclosure and its modified version, which added use of FGF2 at Stage 3, were tested for differentiating human stem cells into mature β cells capable of releasing insulin in response to glucose challenge in vitro.
as §1, §2
In one experiment, on protocol day 7 (S3, day 1; S3dl), 10 mL of cell clusters were taken from the spinner flask and aliquoted into 2 wells of ultra-low attachment 6-well plates (Corning 29443) (5 mL/well). The plate was placed on an orbital shaker set to 130 rpm in the incubator. Cells received either control Version A conditions as described above or were supplemented with FGF2 (100 ng/ml) on protocol day 7 and day 8 only (S3d1 and S3d2).
as §3

[3] = system: Stage 6 cells (NKX6.1-positive, ISL1-positive endocrine cells); assay: FGF2 applied at S6 of the Version A or Version B differentiation protocol; cell composition by flow cytometry; type: cell-based, human
Procedure: In one experiment, the effect of FGF2 treatment at S6 was examined by comparing Stage 6 cells generated with Version A protocol, as described in Example 1, or with Version A protocol plus FGF2 treatment (100 ng/mL) at S6 for the first 3 days.
In another experiment, the effect of FGF2 treatment at S6 was examined by comparing S6 cells generated under four differentiation conditions: Version A protocol; Version A protocol + FGF2 treatment (100 ng/mL for the first 12 days) at S6; Version B protocol; Version B protocol+ FGF2 treatment at S6. Version B protocol shares similar reagents and treatment timing with […], in Version B protocol, one difference from Version A protocols is that the cells were supplemented with 500 nM PDBU from day 5 of Stage 4 (S4d5) to day 2 of […] (S5d2). […]

[4] = FGF2 100 ng/mL at S4 versus Version A without FGF2, FIG. 2B
[5] = FGF2 treatment at S4, FIGS. 8A-8B
[6] = FGF2 treatment at S3, by the end of S5, FIGS. 8A-8B
[7] = FGF2 treatment at S6, summary FIG. 8A
[8] = Version B protocol, FGF2 at S6, by S6d8 and S6d12, FIGS. 5A-C

EZH2, sequence (Q15910 whole entry, species assumed): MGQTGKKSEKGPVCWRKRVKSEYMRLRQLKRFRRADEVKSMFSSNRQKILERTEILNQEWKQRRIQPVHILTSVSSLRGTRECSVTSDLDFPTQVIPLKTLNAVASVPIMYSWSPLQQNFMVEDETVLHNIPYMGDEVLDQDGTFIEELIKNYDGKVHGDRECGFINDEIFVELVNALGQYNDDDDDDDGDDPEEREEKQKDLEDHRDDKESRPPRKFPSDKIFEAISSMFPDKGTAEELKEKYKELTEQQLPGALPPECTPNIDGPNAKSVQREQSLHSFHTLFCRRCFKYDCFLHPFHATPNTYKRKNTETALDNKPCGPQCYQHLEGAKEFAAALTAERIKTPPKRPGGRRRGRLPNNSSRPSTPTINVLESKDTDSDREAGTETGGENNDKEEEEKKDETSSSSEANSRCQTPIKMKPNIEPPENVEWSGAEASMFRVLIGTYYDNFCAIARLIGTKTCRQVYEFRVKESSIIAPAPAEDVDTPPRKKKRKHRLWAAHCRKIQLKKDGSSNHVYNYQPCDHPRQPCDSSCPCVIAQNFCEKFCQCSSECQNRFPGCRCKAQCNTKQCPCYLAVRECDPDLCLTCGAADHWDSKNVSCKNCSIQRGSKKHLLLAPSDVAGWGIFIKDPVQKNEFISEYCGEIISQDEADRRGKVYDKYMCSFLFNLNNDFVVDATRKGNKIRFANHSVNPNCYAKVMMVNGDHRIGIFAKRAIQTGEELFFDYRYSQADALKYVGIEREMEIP
EZH2, sequence (O75530 whole entry partner, species assumed): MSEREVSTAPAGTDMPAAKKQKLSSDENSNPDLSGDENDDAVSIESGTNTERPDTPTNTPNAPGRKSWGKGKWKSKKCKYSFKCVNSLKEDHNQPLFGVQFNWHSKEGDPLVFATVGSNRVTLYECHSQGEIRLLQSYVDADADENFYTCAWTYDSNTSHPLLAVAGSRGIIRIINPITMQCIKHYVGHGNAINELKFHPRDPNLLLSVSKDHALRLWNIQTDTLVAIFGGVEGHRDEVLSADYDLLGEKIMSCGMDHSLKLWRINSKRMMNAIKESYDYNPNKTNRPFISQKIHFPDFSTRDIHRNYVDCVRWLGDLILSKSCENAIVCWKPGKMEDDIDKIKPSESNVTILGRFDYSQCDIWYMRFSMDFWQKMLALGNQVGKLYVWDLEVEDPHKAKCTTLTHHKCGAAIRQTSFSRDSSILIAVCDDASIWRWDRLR
EZH2, sequence (Q15022 whole entry partner, species assumed): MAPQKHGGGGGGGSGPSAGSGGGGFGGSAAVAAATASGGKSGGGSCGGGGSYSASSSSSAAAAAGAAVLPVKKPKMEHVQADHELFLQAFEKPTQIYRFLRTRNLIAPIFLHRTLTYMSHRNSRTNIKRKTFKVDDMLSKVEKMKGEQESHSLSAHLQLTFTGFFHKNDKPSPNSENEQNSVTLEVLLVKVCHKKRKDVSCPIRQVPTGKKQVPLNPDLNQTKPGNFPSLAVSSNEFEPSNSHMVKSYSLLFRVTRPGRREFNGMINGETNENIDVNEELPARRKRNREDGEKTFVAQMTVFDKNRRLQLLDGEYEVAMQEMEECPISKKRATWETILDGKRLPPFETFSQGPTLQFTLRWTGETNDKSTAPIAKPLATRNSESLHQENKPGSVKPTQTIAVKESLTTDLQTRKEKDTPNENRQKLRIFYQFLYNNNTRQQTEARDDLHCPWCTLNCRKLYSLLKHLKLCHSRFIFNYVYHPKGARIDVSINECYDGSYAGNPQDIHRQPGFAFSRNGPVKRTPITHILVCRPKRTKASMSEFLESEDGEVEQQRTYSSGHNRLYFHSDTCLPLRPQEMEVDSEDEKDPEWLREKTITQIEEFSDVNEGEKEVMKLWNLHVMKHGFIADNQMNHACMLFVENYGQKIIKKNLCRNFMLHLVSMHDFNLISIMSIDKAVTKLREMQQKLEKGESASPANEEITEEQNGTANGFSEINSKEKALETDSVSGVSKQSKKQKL

CC[C@H](C)n1cc(C)c2c(C(=O)NCc3c(C)cc(C)[nH]c3=O)cc(-c3ccc(N4CCNCC4)nc3)cc21 [GSK126]
selectivity over EZH1 (EZH2; EZH2 versus EZH1): 150 fold

CCCc1cc(C)[nH]c(=O)c1CNC(=O)c1cc(-c2ccc(N3CCN(C(C)C)CC3)nc2)cc2c1cnn2C(C)C [UNC1999]
selectivity compared with GSK126 (EZH2): less selective

FGF2: growth factor from the FGF family; human FGF2 polypeptide sequence (GenBank Accession NP 001997); Peprotech RUO: 100-18B-1MG
change in SC-EC cells [1]: decrease | change in SC-α cells [1]: increase | change in percentage of SC-β cells [1]: no significant change | change in percentage of glucagon-positive, ARX-positive cells [2, 4]: increased | change in percentage of total ARX-positive cells [2, 4]: increased | increase of the percentage of somatostatin-positive SC-δ cells [2, 4]: about two | percentage of NKX6.1-negative, ISL1-positive SC-α cells ([2]; FGF2 100 ng/mL on day 1, 3 and 5 of S4, Version A, flow cytometry on S6d1, without FGF2 5.6%): 12.0% | percentage of NKX6.1-positive, ISL1-positive SC-β cells ([2]; FGF2 100 ng/mL on day 1, 3 and 5 of S4, Version A, flow cytometry on S6d1, without FGF2 around 43%): around 55% | change in percentage of SC-EC cells [2, 5]: decreased | change in percentage of SC-α cells [2, 5]: increase | change in percentage of SC-β cells [2, 5]: increase | change in percentage of SC-δ cells [2, 5]: increase | change in percentage of SOX9-positive cells [2, 5]: decreased | percentage of VMAT1-positive cells ([2]; FGF2 treatment at S4, without FGF2 about 60%, FIG. 3B): about 40% | percentage of SOX9-positive, NKX6.1-positive cells ([2]; FGF2 treatment at S4, without FGF2 around 12.5%): around 5% | percentage of total SOX9-positive cells ([2]; FGF2 treatment at S4, without FGF2 around 20%, FIG. 3A): around 14% | percentage of NKX6.1-positive, ISL1-negative cells ([2]; FGF2 treatment at S4, without FGF2 around 40%, FIG. 3B): around 20% | percentage of SC-α cells that express ISL1, but do not express NKX6.1 (primitive gut tube cells; FGF2 100 ng/ml on S3d1 and S3d2, Version A, flow cytometry on S6d1, without FGF2 9.7%): 35.1% | percentage of SC-enterochromaffin cells (SC-EC) that express NKX6 but not ISL1.1 (primitive gut tube cells; FGF2 100 ng/ml on S3d1 and S3d2, Version A, flow cytometry on S6d1, without FGF2 31.7%): 13.1% | percentage of SC-β cells that express both NKX6.1 and ISL1 (primitive gut tube cells; FGF2 100 ng/ml on S3d1 and S3d2, Version A, flow cytometry on S6d1, without FGF2 49.3%): 36.6% | change in percentage of SC-EC cells (primitive gut tube cells; [6]): decreased | change in percentage of SC-β cells (primitive gut tube cells; [6]): decreased | change in percentage of SC-α cells (primitive gut tube cells; FGF2 treatment at S3, cells generated by the end of S5, FIGS. 8A-8B): increased | change in percentage of Ki67-positive cells ([3]; FGF2 at S6, both Version A and Version B protocols): increased | percentage of non-proliferating SOX9-positive cells (SOX9-positive, Ki67-negative) ([3]; FGF2 at S6, by S6d12, both Version A and Version B protocols, without FGF2 15%-25%, FIG. 6A): about 65% | percentage of proliferating SOX9-positive cells (SOX9-positive, Ki67-positive) ([3]; FGF2 at S6, by S6d12, both Version A and Version B protocols, without FGF2 close to zero, FIG. 6B): 15%-20% | change in percentage of proliferating non-SOX9 cells (SOX9-negative, Ki67-positive) ([3]; FGF2 treatment at S6, FIG. 6C): small change | effect on SC-EC cells, as measured by expression of VMAT1, or positivity for NKX6.1 and negativity for ISL1 ([3]; FGF2 treatment at S6, S6d4, S6d8, S6d12, FIGS. 7A-7B): small effect | change in percentage of SC-α cells [3, 7]: increase | change in percentage of SC-β cells [3, 7]: increase | change in percentage of SC-δ cells [3, 7]: increase | percentage of NKX6.1-positive, ISL1-positive SC-β cells ([3]; Version A plus FGF2 100 ng/mL at S6 for the first 3 days, flow cytometry, without FGF2 18.5%): 36.9% | change in percentage of SC-β cell ([3]; Version A protocol, FGF2 100 ng/mL for the first 12 days at S6, by S6d8 and S6d12): relatively unchanged | change in SC-δ cell percentage [3, 8]: increased | change in percentage of SC-α cells [3, 8]: reduced | change in percentage of SC-β cells [3, 8]: reduced | change in SOX9-positive cells ([3]; addition of FGF2 at S6, both Version A and Version B protocols): significantly increased
